Results as given in patent US6362209B1, “Heterocyclic aromatic oxazole compounds and use thereof” (Japan Tobacco Inc., priority 1994, dated 2002).
pIC50: −log10 of the molar value.

Legend:
[1] = system: carrageenin-induced podedema; assay: Effects on carrageenin-induced podedema in rats; assay type: in vivo, male Donryu rats; settings: oral dose one hour before carrageenin; limb volume 3 hours after carrageenin; dose inhibiting by 30% relative to control
Protocol: Experimental Example 2 (effects on carrageen in induced podedema) Carrageenin (1%, 0.05 ml) dissolved in physiological saline was subcutaneously injected to the left hindlimb of male Donryu rats to induce podedema. The degree of podedema was evaluated by measuring the volume of the limb 3 hours after carrageenin administration. A test compound (1, 3, 10 or 30 mg/kg) was orally administered one hour before carrageenin administration, and suppression thereby was studied. Inhibitory activity was expressed by the dose (ED30) of the test compound necessary for inhibiting by 30% relative to the control group.

human cyclooxygenase-2 = molecular target: T1, human cyclooxygenase-2 (Homo sapiens, UniProt P35354); assay: Inhibitory action on cyclooxygenase-2 (conversion of 14C arachidonic acid to PGH2)
T1 sequence (P35354 18-604): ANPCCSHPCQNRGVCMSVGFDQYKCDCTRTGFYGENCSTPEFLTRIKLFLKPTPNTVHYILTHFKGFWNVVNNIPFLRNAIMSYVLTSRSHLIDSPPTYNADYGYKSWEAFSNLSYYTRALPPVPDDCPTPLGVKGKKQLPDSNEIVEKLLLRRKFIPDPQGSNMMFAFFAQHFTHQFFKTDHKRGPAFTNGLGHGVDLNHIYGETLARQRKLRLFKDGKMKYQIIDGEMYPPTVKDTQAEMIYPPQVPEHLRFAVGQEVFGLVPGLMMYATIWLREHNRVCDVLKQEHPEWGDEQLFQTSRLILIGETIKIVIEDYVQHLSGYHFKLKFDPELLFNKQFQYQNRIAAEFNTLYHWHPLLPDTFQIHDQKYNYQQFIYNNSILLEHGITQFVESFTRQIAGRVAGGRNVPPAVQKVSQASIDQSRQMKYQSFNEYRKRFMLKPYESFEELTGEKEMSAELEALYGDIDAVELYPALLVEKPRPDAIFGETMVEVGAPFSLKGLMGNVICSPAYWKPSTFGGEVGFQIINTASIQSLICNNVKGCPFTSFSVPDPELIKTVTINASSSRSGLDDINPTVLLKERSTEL
Protocol: (§1) The enzymatic activity was determined from the percent conversion of ^14C arachidonic acid into prostaglandin H2 (PGH2) and the decomposed product thereof. That is, a test sample (20 μl), an enzyme solution (20 μl) and distilled water (10 μl) were added to 100 mM Tris-HCl buffer (pH 8, 140 μl) containing hematin (2 μM) and tryptophan (5 mM), and the mixture was thoroughly stirred, which was followed by preincubation at 24° C. for 5 minutes. Then, a ^14C arachidonic acid solution (10 μl) was added and the mixture was reacted at 24° C., whereafter a solution (40 μl) of ethyl ether/methanol/1M citric acid (30/4/1) iceooled to −20° C. was added to stop the reaction. The reaction mixture was centrifuged for 5 minutes at 3,000 rpm to give an ether layer which was placed on a thin plate, and developed with ethyl ether/methanol/acetic acid (90/2/0.1) to determine percent conversion (A) from arachidonic acid to PGH2 and the decomposed product thereof.
Inhibition (%)=(1A/B)×100
(§2) An enzyme prepared from human platelets was used as an enzyme solution of cyclooxygenase-1, and an enzyme expressed by a yeast, into which cDNA of human cyclooxygenase-2 had been introduced using a kit of Invitrogen Corp., was used as an enzyme solution of cyclooxygenase-2.

cyclooxygenase-1 = cyclooxygenase-1 (Homo sapiens, UniProt P23219); assay: Inhibitory action on cyclooxygenase-1 (conversion of 14C arachidonic acid to PGH2); assay type: biochemical; settings: enzyme prepared from human platelets; preincubation 24° C. 5 minutes; read-out: IC50 COX-1
Chain of cyclooxygenase-1 (P23219 24-599): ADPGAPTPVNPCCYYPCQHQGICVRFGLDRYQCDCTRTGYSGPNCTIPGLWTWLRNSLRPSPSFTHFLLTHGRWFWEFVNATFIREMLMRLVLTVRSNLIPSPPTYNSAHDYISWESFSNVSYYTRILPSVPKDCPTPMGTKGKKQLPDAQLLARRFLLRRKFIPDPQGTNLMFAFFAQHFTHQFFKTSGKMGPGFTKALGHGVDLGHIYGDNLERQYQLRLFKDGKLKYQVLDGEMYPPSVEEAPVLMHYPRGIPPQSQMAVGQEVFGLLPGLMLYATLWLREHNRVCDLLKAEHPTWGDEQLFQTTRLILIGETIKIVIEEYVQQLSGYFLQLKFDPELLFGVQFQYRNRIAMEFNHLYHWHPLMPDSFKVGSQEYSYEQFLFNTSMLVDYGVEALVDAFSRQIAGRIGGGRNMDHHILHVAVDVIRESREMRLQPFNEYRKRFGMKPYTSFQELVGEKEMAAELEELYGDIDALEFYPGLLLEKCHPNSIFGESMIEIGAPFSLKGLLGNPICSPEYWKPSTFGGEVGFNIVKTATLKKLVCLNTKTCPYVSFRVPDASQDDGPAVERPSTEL
Protocol: as §1
Inhibition (%)=(1A/B)×100
as §2

Compound | pIC50 (cyclooxygenase-1) | carrageenin-induced podedema in rats, ED30 [1] [mg/kg p.o.] | pIC50 (human cyclooxygenase-2)
COc1ccc2c(c1)c(CC(=O)O)c(C)n2C(=O)c1ccc(Cl)cc1 [Indomethacin, reference compound] |  | 2.9 | 
Cc1nc(C2CCCCC2)c(-c2ccc(S(N)(=O)=O)c(F)c2)o1 [Example 2, 5-(4-aminosulfonyl-3-fluorophenyl)-4-cyclohexyl-2-methyloxazole] |  | 5.5 | 7.15
Cc1nc(-c2ccc(F)cc2)c(-c2ccc(S(N)(=O)=O)c(F)c2)o1 [Example 7, 5-(4-aminosulfonyl-3-fluorophenyl)-4-(4-fluorophenyl)-2-methyloxazole] | 4.43 |  | 7.52
Cc1nc(C2CCCCC2)c(-c2ccc(S(C)(=O)=O)c(F)c2)o1 [Example 3, 4-cyclohexyl-5-(3-fluoro-4-methylsulfonylphenyl)-2-methyloxazole] | < 4.00 |  | 6.52

Continued, in another order:

pIC50 (cyclooxygenase-1) | Compound | carrageenin-induced podedema in rats, ED30 [1] [mg/kg p.o.] | pIC50 (human cyclooxygenase-2)
4.35 | Cc1nc(C2CCCCC2)c(-c2ccc(S(N)(=O)=O)cc2)o1 [Control 1, reference compound] |  | 
< 4.00 | Cc1nc(C2CCCCC2)c(-c2cc(F)c(S(N)(=O)=O)c(F)c2)o1 [Example 6] |  | 6.80
